Measured values reported in publication PMC7996082, “The translocator protein ligands as mitochondrial functional modulators for the potential anti-Alzheimer agents” (Journal of Enzyme Inhibition and Medicinal Chemistry, 2021).

Experiments:
[1] = MTT assay: HT22 cell viability with compound alone; type: cell-based, mouse; conditions: mouse, HT22 cells; HT22 cell viability after 24 h of treatment with 5 μM compound, no Aβ
Description: To a clear 96-well plate (FALCON), the cultured HT-22 cells were seeded in a number of 5,000 per well 24 h prior to the assay. A solution of each test compound (5 µM, 25 µL) was added to each well. After 24 h of incubation at 37 °C, the cells were treated with a 10 µL of MTT solution (3–(4,5-dimethylthiazol-2-yl)-2,5-diphenyltetrazolium bromide, Sigma-Aldrich), incubated for 2 h at 37 °C, and were treated with 135 µL of MTT solubilising solution (10% Triton-X 100 in isopropanol with 0.1 M HCl) for 2 h at 37 °C. The % values of cell viability were determined by using the optical density (OD) values at 560 nm, and normalised by taking the vehicle control (5 µM of DMSO) as […].

hERG channel = target: T1, hERG channel (Homo sapiens, UniProt Q12809); experiment: hERG inhibition assay (automated patch-clamp, CHO-K1 Tet-On hERG cells); type: cell-based; conditions: patch-clamp, ± SD
T1 construct: host or cells: CHO-K1 Tet-On hERG cells
T1 sequence (Q12809 whole entry): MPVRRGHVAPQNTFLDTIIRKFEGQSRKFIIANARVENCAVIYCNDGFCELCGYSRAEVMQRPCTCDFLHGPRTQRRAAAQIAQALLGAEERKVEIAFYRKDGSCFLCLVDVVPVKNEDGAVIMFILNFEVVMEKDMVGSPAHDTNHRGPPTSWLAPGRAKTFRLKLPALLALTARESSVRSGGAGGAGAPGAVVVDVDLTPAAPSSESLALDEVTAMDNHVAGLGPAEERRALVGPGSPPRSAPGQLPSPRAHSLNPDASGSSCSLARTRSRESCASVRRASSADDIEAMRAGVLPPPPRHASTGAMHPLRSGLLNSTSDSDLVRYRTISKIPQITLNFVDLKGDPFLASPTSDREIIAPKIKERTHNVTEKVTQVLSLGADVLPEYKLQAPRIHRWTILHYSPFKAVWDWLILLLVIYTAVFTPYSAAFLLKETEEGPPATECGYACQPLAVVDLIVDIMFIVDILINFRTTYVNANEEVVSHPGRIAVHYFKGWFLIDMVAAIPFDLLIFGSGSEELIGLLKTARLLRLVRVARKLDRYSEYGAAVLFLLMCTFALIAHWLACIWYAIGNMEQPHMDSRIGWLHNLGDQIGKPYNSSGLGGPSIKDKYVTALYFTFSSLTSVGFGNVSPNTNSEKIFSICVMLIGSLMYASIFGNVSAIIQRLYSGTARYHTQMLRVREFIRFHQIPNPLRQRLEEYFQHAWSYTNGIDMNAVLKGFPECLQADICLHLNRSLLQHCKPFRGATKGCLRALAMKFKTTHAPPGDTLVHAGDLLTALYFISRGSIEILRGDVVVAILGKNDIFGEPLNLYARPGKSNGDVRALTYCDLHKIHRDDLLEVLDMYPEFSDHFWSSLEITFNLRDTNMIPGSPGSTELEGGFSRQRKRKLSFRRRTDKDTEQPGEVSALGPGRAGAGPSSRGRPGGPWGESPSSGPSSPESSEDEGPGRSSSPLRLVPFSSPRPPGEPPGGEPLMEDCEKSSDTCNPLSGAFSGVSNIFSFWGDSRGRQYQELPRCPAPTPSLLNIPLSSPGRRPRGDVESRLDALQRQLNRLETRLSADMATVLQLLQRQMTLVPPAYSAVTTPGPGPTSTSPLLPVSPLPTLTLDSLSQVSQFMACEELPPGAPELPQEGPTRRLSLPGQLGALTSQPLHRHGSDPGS
Description: For automated patch-clamp NPC-16 Patchliner (Nanion Technologies, München, Germany) recordings, CHO-K1 Tet-On hERG cells (IonGate Biosciences GmbH, Frankfurt, Germany) were plated into 100-mm cell culture dishes. Whole-cell currents were recorded with the intracellular solution containing: 50 mM KCl, 60 mM KF, 10 mM NaCl, 2 mM MgCl2, 20 mM EGTA and 10 mM HEPES (pH 7.2), and with the extracellular solution containing: 140 mM NaCl, 4 mM KCl, 2 mM CaCl2, 1 mM MgCl2, 5 mM Glucose and 10 HEPES (pH 7.4). To assist stable seal formations, the seal enhancer containing: 80 mM NaCl, 3 mM KCl, 35 mM CaCl2, 10 mM MgCl2 and 10 mM HEPES (pH 7.4) was used only at the seal formation step. Prior to the whole-cell recordings, the external seal enhancing solution was exchanged to the extracellular solution described above. hERG channel currents were recorded using the parallel EPC-10 patch-clamp amplifiers (HEKA Elektronik, Lambrecht/Pfalz, Germany), and low-pass filtered (10 kHz) with a 4-pole Bessel filter. Cell suspension and patch solutions were automatically added onto the four recording wells in the microfabricated disposable chip (NPC-16 Chip, Nanion Technologies, München, Germany). To obtain the inhibitory constants, hERG tail currents were evoked by repolarizing steps to −50 mV for 500 ms preceded by a 500-ms depolarisation potential of +20 mV at a holding potential of −80 mV with a 20-s sweep interval. Whole-cell currents were acquired and digitised at 5 kHz using Patchmaster (HEKA Elektronik, Lambrecht/Pfalz, Germany). The extracellular solution was exchanged to the extracellular solution containing each blocker via four pipette tips of NPC-16 Patchliner using a 4-fold volume of solution (40 µL) with a speed of 4 µL/s, and the exchanged blocker solution was applied for 100–200 s to the patch-clamped cells until blocker binding had reached equilibrium by monitoring hERG tail currents. Whole-cell recordings were analysed using the Patchmaster/Fitmaster (HEKA Elektronik, Lambrecht/Pfalz, Germany), IGOR Pro (WaveMetrics Inc., Portland, OR, USA), and the GraphPad Prism 4.0 (GraphPad Software, Inc., La Jolla, CA, USA) software.

CYP2C9 = target: T2, CYP2C9 (Homo sapiens, UniProt P11712); experiment: CYP inhibition assay (Vivid CYP450 screening kit); type: in vitro ADME; conditions: 10 μM compound
T2 construct: purchased Invitrogen, Madison, WI, USA
T2 sequence (P11712 whole entry): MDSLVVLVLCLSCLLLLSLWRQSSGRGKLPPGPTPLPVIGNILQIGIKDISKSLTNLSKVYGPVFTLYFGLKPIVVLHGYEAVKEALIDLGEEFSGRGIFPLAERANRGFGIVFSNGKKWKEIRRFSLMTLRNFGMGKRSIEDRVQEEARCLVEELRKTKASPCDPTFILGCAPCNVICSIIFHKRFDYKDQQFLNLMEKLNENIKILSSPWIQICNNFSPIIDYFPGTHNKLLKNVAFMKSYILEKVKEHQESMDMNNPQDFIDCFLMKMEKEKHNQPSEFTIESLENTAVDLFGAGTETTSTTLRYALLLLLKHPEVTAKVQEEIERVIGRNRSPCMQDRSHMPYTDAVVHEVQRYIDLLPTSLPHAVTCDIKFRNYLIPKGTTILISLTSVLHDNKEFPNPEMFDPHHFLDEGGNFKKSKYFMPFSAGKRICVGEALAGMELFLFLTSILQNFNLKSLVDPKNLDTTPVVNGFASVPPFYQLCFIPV
Description: (§1) Human CYP450 (CYP1A2, 2D6, 2C9, 2C19, and 3A4) activities were determined by using the Vivid® CYP450 screening kit (Invitrogen, Madison, WI, USA) in a clear 96-well plate. Five positive controls were used as 10 mM solutions in MeCN for five different CYP450 enzymes: CYP1A2 (α-naphthoflavone), CYP2D6 (quinidine), CYP2C9 (sulfaphenazole), CYP2C19 (lansoprazole), and CYP3A4 (ketoconazole). Each sample (test compounds, positive inhibition controls, and solvent controls) was added into each well with the Master Pre-Mix [CYP450 BACULOSOMES® Reagent (recombinant human CYP450 isozyme and rabbit NADPHP450 reductase) and Regeneration System (3.3 mM glucose-6-phosphate and 0.3 U/ml glucose-6-phosphate dehydrogenase in 100 mM potassium phosphate, pH 8.0)]. The mixture was incubated for 5 min at 37 °C, and the Vivid® CYP substrates and 0.1 mM NADP^+ buffer were added to initiate the CYP450 enzyme reaction. The % remaining activities of CYP450 were measured after 20 min by using a fluorescent plate reader (Flexstation® 3, Molecular Devices, USA).

CYP3A4 = target: T3, CYP3A4 (Homo sapiens, UniProt P08684); experiment: CYP inhibition assay (Vivid CYP450 screening kit); type: in vitro ADME; conditions: 10 μM compound
T3 construct: purchased Invitrogen, Madison, WI, USA
T3 sequence (P08684 2-503 limits assumed): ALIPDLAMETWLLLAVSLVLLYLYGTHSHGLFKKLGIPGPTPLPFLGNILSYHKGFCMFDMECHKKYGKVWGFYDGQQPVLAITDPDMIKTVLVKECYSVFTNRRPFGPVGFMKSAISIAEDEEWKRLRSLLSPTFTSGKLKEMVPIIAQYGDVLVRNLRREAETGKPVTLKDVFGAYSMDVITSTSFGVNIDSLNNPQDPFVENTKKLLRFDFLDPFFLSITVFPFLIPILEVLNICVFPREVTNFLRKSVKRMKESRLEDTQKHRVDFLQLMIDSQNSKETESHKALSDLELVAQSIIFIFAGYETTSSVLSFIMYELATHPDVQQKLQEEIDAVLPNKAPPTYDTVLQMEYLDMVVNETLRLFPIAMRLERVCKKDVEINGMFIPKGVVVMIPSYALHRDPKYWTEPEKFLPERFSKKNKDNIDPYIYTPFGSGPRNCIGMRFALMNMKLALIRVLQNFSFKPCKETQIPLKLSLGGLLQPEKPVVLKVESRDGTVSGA
Description: as §1

CYP2D6 = target: T4, CYP2D6 (Homo sapiens, UniProt P10635); experiment: CYP inhibition assay (Vivid CYP450 screening kit); type: in vitro ADME; conditions: 10 μM compound
T4 construct: purchased Invitrogen, Madison, WI, USA
T4 sequence (P10635 whole entry): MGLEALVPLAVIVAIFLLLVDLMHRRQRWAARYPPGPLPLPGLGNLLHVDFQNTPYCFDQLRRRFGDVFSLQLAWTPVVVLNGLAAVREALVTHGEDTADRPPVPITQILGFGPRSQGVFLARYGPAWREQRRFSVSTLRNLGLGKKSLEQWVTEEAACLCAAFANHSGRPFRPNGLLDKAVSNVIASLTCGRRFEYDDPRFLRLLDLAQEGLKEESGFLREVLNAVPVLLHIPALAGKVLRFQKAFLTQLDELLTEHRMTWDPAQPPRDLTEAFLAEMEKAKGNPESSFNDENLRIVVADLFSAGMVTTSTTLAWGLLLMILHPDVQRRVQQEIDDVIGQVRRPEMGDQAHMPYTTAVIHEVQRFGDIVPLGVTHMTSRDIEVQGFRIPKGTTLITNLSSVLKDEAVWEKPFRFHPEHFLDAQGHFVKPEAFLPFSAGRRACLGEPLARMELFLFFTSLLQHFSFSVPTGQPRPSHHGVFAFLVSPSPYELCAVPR
Description: as §1

CYP2C19 = target: T5, CYP2C19 (Homo sapiens, UniProt P33261); experiment: CYP inhibition assay (Vivid CYP450 screening kit); type: in vitro ADME; conditions: 10 μM compound
T5 construct: purchased Invitrogen, Madison, WI, USA
T5 sequence (P33261 whole entry): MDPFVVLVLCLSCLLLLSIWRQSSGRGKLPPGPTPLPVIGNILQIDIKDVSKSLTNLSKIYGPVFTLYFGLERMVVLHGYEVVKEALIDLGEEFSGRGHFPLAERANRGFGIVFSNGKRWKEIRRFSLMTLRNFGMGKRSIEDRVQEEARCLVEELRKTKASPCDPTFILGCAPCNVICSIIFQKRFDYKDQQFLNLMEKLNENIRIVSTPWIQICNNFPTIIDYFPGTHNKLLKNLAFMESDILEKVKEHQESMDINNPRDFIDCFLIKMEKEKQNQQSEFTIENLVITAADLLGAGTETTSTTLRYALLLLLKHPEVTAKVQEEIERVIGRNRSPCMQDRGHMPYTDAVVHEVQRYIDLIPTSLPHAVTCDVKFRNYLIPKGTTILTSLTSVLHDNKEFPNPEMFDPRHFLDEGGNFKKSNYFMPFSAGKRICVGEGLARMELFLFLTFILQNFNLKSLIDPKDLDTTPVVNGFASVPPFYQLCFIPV
Description: as §1

CYP1A2 = target: T6, CYP1A2 (Homo sapiens, UniProt P05177); experiment: CYP inhibition assay (Vivid CYP450 screening kit); type: in vitro ADME; conditions: 10 μM compound
T6 construct: purchased Invitrogen, Madison, WI, USA
T6 sequence (P05177 2-516 limits assumed): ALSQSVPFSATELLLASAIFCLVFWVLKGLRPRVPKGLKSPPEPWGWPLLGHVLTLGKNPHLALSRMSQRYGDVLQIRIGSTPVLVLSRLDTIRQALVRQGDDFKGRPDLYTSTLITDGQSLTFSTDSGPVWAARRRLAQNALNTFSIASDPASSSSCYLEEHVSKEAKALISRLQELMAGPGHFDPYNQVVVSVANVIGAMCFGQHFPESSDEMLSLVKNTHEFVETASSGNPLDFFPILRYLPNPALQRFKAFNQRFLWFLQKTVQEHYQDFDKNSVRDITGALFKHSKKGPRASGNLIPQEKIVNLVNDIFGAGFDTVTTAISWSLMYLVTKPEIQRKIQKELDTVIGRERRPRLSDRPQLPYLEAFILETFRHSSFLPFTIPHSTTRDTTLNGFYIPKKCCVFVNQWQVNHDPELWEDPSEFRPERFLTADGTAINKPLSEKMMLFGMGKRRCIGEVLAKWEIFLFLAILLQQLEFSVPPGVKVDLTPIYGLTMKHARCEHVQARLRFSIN
Description: as §1

[2] = Liver microsomal stability; type: in vitro ADME; conditions: human, liver microsomes, 1 µM compound, 0.5 mg/mL microsomes, 30 min, 37 °C; read-out: Human Liver Microsomal Stability (% remaining after 30 min)
Description: Liver microsomes (human, dog, rat, and mouse; 0.5 mg/mL) were incubated with 1 µM of each test compound in the presence of potassium phosphate buffer (PPB) for 5 min at 37 °C. A solution of the NADPH regeneration system (#44332000, Oriental Yeast Co., Japan) was added to begin metabolic reactions of liver microsomes. The resulting mixtures were incubated for 30 min at 37 °C, and the reaction was terminated by the addition of a cold MeCN solution containing an internal standard (chlorpropamide). The mixture was separated by centrifugation (14,000 rpm for 5 min at 4 °C), and the supernatant was analysed by LC-MS/MS (Shimadzu Nexera XR system and TSQ vantage; Thermo Scientific).

Row | SMILES | viability at 24 h, 5 µM [1] [%] | IC50 (hERG channel) [µM] | CYP450 (% remaining Activity at 10 μM) CYP2C9 (CYP2C9) [%] | CYP450 (% remaining Activity at 10 μM) CYP3A4 (CYP3A4) [%] | CYP450 (% remaining Activity at 10 μM) CYP2D6 (CYP2D6) [%] | CYP450 (% remaining Activity at 10 μM) CYP2C19 (CYP2C19) [%] | CYP450 (% remaining Activity at 10 μM) CYP1A2 (CYP1A2) [%] | remaining at 0.5 h, 1 µM [2] [%]
1 | CCOc1ccc(-n2c(SCC(=O)N(C)Cc3ccccc3)nc3sc4c(c3c2=O)CCN(C(C)=O)C4)cc1 [Compound 32] | 88 | 6.53 ± 2.46 | 30.9 | 49.3 | 91.7 | 23.3 | 117.3 | < 10
2 | CCOc1ccc(-n2c(SCC(=O)NCc3ccc(Cl)cc3)nc3sc4c(c3c2=O)CCN(C(C)=O)C4)cc1 [Compound 34] | 97 | 4.13 ± 1.39 | 32.9 | 15.0 | 92.6 | 56.8 | 160.6 | 0
3 | CCOc1ccc(-n2c(SCC(=O)N(CC)Cc3ccccc3)nc3sc4c(c3c2=O)CCN(C)C4)cc1 [Compound 51] | 107 | 10 ± 3.6 | 105.8 | 44.1 | 61.4 | 52.5 | 98.7 | 82
4 | CCOc1ccc(-n2c(SCC(=O)N(CC)Cc3ccccc3)nc3sc4c(c3c2=O)CCN(C(C)=O)C4)cc1 [Compound 33] | 104 | 2.77 ± 1.18 | 32.8 | 56.6 | 82.0 | 35.7 | 150.5 | < 10
5 | CCOc1ccc(-n2c(SCC(=O)NCc3ccc(Cl)cc3)nc3sc4c(c3c2=O)CCN(C)C4)cc1 [Compound 52] | 80 | 8.6 ± 0.83 | 86.9 | 42.6 | 36.6 | 16.1 | 117.2 | 67.6
6 | CCOc1ccc(-n2c(SCC(=O)Nc3ccc(C)cc3)nc3sc4c(c3c2=O)CCN(C)C4)cc1 [Compound 55] | 127 | 5.63 ± 1.75 | 43.0 | 23.0 | 59.2 | 31.2 | 69.2 | 49.1
7 | CCOc1ccc(-n2c(SCC(=O)N3CCC(c4ccccc4)CC3)nc3sc4c(c3c2=O)CCN(C(C)=O)C4)cc1 [Compound 46] | 86 |  | 6.7 | 81.2 | 72.3 | 16.5 | 84.4 | 6.6
8 | CCOc1ccc(-n2c(SCC(=O)Nc3ccc(Cl)cc3)nc3sc4c(c3c2=O)CCN(C(C)=O)C4)cc1 [Compound 35] | 107 | 30 ± 10.2 | 64.0 | 70.7 | 113.8 | 72.0 | 120.0 | 0.1
9 | CCOc1ccc(-n2c(SCC(=O)NCc3ccc(C)cc3)nc3sc4c(c3c2=O)CCN(C(C)=O)C4)cc1 [Compound 36] | 96 | 22 ± 12.7 | 50.4 | 17.3 | 98.9 | 92.7 | 123.6 | 0
